According to patent US20090156645A1, “Method for Increasing the Susceptibility of Peptide Deformylase Inhibitors by Using Efflux Pump Inhibitors” (priority 2004, published 2009):
Converted amounts (≈) assume the structure as drawn. Read-outs that look alike come from different tables or passages of the source. Where a SMILES comes first, the peptide text is derived from it. The star is where a group is joined. βNA = c1ccc2cc(N*)ccc2c1

Key:
H. influenzae = assay: microbe, parasite or virus in culture; type: cell-based, Haemophilus influenzae; details: for effect of inactivation of HI1462 on susceptibility: H. influenzae NB65044; for MIC: Haemophilus influenzae; for effect of insertional inactivation of acrB on susceptibility: laboratory strain NB65044
Description: L-broth or L-agar (Difco) is used for routine growth of Escherichia coli (E. coli). Chocolate agar plates (Remel) are used for routine growth of H. influenzae. Brain heart infusion broth (Remel) supplemented with 10 μg/mL of β-NAD (Fluka) and 10 μg/mL hemin/vitamin K solution (sBHI) (Remel) is used for liquid broth cultivation of H. influenzae. For induction of natural competence in H. influenzae, nutritional downshift is induced using M-IV medium as described previously. See Poje and Redfield, Methods Mol Med, Vol. 71, No., pp. 57-70 (2003). Kanamycin is added to growth media at 50 μg/mL (E. coli) or 5 μg/mL (H. influenzae) as required.
Antibiotic and substrate MICs are determined by broth microdilution using 2-fold dilution in HTM in accordance with the procedures established by the National Committee for Clinical Laboratory Standards (NCCLS). See NCCLS, Approved standard M7-A5, Wayne, Pa. (2003). PDF inhibitors are synthesized at the Novartis Institutes for BioMedical Research, Cambridge, Mass. All remaining antibiotics are obtained from Sigma (St. Louis, Mo.).

E. coli = assay: MIC of LBM415 in E. coli with or without AcrAB-TolC pump function; type: cell-based; details: Escherichia coli
Description: (§1) For E. coli testing, strain NB27006 is used. This strain is deficient in its native AcrAB pump (described in H Okusu et al. J. Bacteriol. 1996 178: 306-308) and is a suitable host for cloning the H. influenzae acrAB pump genes.
(§2) E. coli: MIC determines are conducted as described above except using Mueller-Hinton test medium.
12). The acrAB containing product is cloned into Topo PCR2.1 (Invitrogen) and transformed into Top10 competent cells (Invitrogen). An insert bearing plasmid is isolated and sequenced to ensure that mutations are not introduced during PCR and cloning. This plasmid is then transformed into E. coli strain NB27006, which lacks its native AcrAB-ToIC pump function.
To further examine this, the H. influenzae acrAB genes are cloned and used to complement, in trans, an AcrAB pump deficiency in E. coli strain NB27006.

[1] = tested on: H. influenzae NB65044-CDS0011; assay: Potentiation of antibiotic MIC by efflux inhibitor (two-axis 96-well plates); type: cell-based, Haemophilus influenzae; details: H. influenzae overexpressing AcrAB; data not shown
Description: H. influenzae NB65044-CDS0011 is used for H. influenzae testing. This strain has increased pump expression which is thought to result in more sensitive detection of pump inhibition.
H. influenzae: MIC determinations are conducted in 96 well sterile plates with a range of LBM415 along one axis and range of efflux inhibitor along the other axis. Medium used is HTM (Remel). Inoculum is set to approximately […] bacteria per well using the BBL prompt system.

[2] = tested on: E. coli strain NB27006 complemented with H. influenzae acrAB genes; assay: Potentiation of antibiotic MIC by efflux inhibitor in E. coli carrying the H. influenzae acrAB genes; type: cell-based, Escherichia coli; details: E. coli complemented in trans with H. influenzae acrAB genes
Description: as §1, §2
Genes encoding H. influenzae AcrAB pump components are PCR amplified from NB65044 genomic DNA using the primers acrA prom F1 (5′-AATTA[…]-3′) (SEQ ID NO. 11) and acrBR3 […] 5′-[…]-3″) (SEQ ID NO. 12). The acrAB containing product is cloned into Topo PCR2.1 (Invitrogen) and transformed into Top10 competent cells (Invitrogen). An insert bearing plasmid is isolated and sequenced to ensure that mutations are not introduced during PCR and cloning. This plasmid is then transformed into E. coli strain NB27006, which lacks its native AcrAB-ToIC pump function.
Since efflux pumps are impacted by such factors as outer membrane permeability, and E. coli is thought to have a less permeable outer membrane than H. influenzae (possibly accounting for increased impact of efflux on drug resistance), it has reasoned that the detection of H. influenzae AcrAB pump inhibition might be more sensitive in an E. coli background. […] This is interesting in that the native E. coli AcrAB-ToIC pump does extrude tetracycline.

[3] = strain NB65016 (clinical isolate), read-out: MIC
[4] = strain NB65016-CDS0004, knockout acrB
[5] = strain NB65027 (clinical isolate), read-out: MIC
[6] = strain NB65027-CDS0003, knockout HI1462
[7] = strain NB65027-CDS0021, knockout acrB
[8] = strain NB65044 (Rd KW20, parent laboratory strain), read-out: MIC
[9] = strain NB65044-CDS0001 (NB65044 acrB::Km)
[10] = strain NB65044-CDS0020 (Table 1: NB65044 acrB::Km)
[11] = strain NB65051 (clinical isolate), read-out: MIC
[12] = strain NB65051-CDS0002, knockout acrB
[13] = strain NB65051-CDS0022, knockout HI1462
[14] = strain NB65063 (clinical isolate), read-out: MIC
[15] = strain NB65063-CDS0005, knockout acrB
[16] = strain NB65069 (clinical isolate), read-out: MIC
[17] = strain NB65069-CDS0007, knockout acrB
[18] = strain NB65076 (clinical isolate), read-out: MIC
[19] = strain NB65076-CDS0006, knockout acrB

Compound	effect of inactivation of HI1462 on susceptibility (H. influenzae)	MIC (H. influenzae; [3]) [µg/mL]	MIC (H. influenzae; [4]) [µg/mL]	MIC (H. influenzae; [5]) [µg/mL]	MIC (H. influenzae; [6]) [µg/mL]	MIC (H. influenzae; [7]) [µg/mL]	MIC (H. influenzae; [8]) [µg/mL]	MIC (H. influenzae; [9]) [µg/mL]	MIC (H. influenzae; [10]) [µg/mL]	MIC (H. influenzae; [11]) [µg/mL]	MIC (H. influenzae; [12]) [µg/mL]	MIC (H. influenzae; [13]) [µg/mL]	MIC (H. influenzae; [14]) [µg/mL]	MIC (H. influenzae; [15]) [µg/mL]	MIC (H. influenzae; [16]) [µg/mL]	MIC (H. influenzae; [17]) [µg/mL]	MIC (H. influenzae; [18]) [µg/mL]	MIC (H. influenzae; [19]) [µg/mL]	effect of insertional inactivation of acrB on susceptibility (H. influenzae)	potentiation of LBM415 activity [1]	also measured
CC[C@H]1OC(=O)[C@H](C)[C@@H](O[C@H]2C[C@@](C)(OC)[C@@H](O)[C@H](C)O2)[C@H](C)[C@@H](O[C@@H]2O[C@H](C)C[C@H](N(C)C)[C@H]2O)[C@](C)(O)C[C@@H](C)C(=O)[C@H](C)[C@@H](O)[C@]1(C)O [ERM, erythromycin]	increases susceptibility	16 (≈ 21.8 µM)	0.25 (≈ 0.341 µM)	16 (≈ 21.8 µM)	0.125 (≈ 0.17 µM)	0.25 (≈ 0.341 µM)	4 (≈ 5.45 µM)	0.25 (≈ 0.341 µM)	0.25 (≈ 0.341 µM)	16 (≈ 21.8 µM)	0.25 (≈ 0.341 µM)	0.125 (≈ 0.17 µM)	8 (≈ 10.9 µM)	0.25 (≈ 0.341 µM)	16 (≈ 21.8 µM)	0.125 (≈ 0.17 µM)	16 (≈ 21.8 µM)	0.125 (≈ 0.17 µM)	increases susceptibility	–	–
CCCC[C@H](CN(O)C=O)C(=O)N1CCC[C@H]1C(=O)Nc1ccc(F)c[n+]1[O-] [LBM415]	increases susceptibility	16 (≈ 40.4 µM)	0.25 (≈ 0.631 µM)	32 (≈ 80.7 µM)	0.5 (≈ 1.26 µM)	0.5 (≈ 1.26 µM)	4 (≈ 10.1 µM)	0.25 (≈ 0.631 µM)	0.125 (≈ 0.315 µM)	32 (≈ 80.7 µM)	0.25 (≈ 0.631 µM)	0.25 (≈ 0.631 µM)	32 (≈ 80.7 µM)	1 (≈ 2.52 µM)	16 (≈ 40.4 µM)	0.25 (≈ 0.631 µM)	16 (≈ 40.4 µM)	0.25 (≈ 0.631 µM)	significantly increases susceptibility	–	MIC (H. influenzae; strain NB65062 (clinical isolate, hyper-susceptible, acrA deletion), read-out: MIC): ≤ 0.25 µg/mL; MIC (H. influenzae; strain NB65062-CDS0037 (NB65062 complemented for acrA deficiency), read-out: MIC): 8 µg/mL (≈ 20.2 µM); MIC (H. influenzae; strain NB65062-CDS0038 (NB65062 complemented for acrA deficiency), read-out: MIC): 8 µg/mL (≈ 20.2 µM); decrease in susceptibility (H. influenzae; acrR insertionally inactivated in NB65044 (NB65044-CDS0008) versus parent): 2 fold; decrease in susceptibility (H. influenzae; two acrR mutants of NB65044 selected on 8 μg/mL LBM415 versus parent): 8 fold; MIC (E. coli; E. coli strain NB27006 complemented with the H. influenzae acrAB genes): 32 µg/mL; MIC (E. coli; E. coli strains deficient in AcrAB-ToIC pump function, typical value): ~1 µg/mL; MIC (E. coli; E. coli with native AcrAB-ToIC pump, typical value): ≥ 128 µg/mL
N=C(N)NCCC[C@H](NC(=O)[C@@H](N)Cc1ccccc1)C(=O)Nc1ccc2ccccc2c1 [MC-207,110] (H-Phe-Arg-βNA)	–	–	–	–	–	–	–	–	–	–	–	–	–	–	–	–	–	–	–	potentiation	potentiation of clindamycin [1]: potentiate; potentiation of tetracycline (pump non-substrate) [1]: no potentiation; potentiation of LBM415 [2]: potentiating activity; potentiation of clindamycin [2]: potentiating activity; potentiation of tetracycline [2]: no potentiation
COC(=O)[C@H]1[C@H]2C[C@@H]3c4[nH]c5cc(OC)ccc5c4CCN3C[C@H]2C[C@@H](OC(=O)c2cc(OC)c(OC)c(OC)c2)[C@@H]1OC [Reserpine]	–	–	–	–	–	–	–	–	–	–	–	–	–	–	–	–	–	–	–	did not potentiate	potentiation of clindamycin [1]: did not potentiate
CN(C)[C@@H]1C(O)=C(C(N)=O)C(=O)[C@@]2(O)C(O)=C3C(=O)c4c(O)cccc4[C@@](C)(O)[C@H]3C[C@@H]12 [TET, tetracycline]	–	–	1 (≈ 2.25 µM)	–	1 (≈ 2.25 µM)	0.5 (≈ 1.13 µM)	–	0.5 (≈ 1.13 µM)	1 (≈ 2.25 µM)	–	1 (≈ 2.25 µM)	1 (≈ 2.25 µM)	–	1 (≈ 2.25 µM)	–	1 (≈ 2.25 µM)	–	1 (≈ 2.25 µM)	–	–	MIC (H. influenzae; strain NB65044-CDS0008, knockout acrR): 0.5 µg/mL (≈ 1.13 µM); MIC (H. influenzae; strain NB65044-CDS0011 (acrR mutant selected on 8 μg/mL LBM415, stop codon)): 1 µg/mL (≈ 2.25 µM); MIC (H. influenzae; strain NB65044-CDS0014 (acrR mutant selected on 8 μg/mL LBM415, L→P)): 1 µg/mL (≈ 2.25 µM)
O=C(N[C@H](CO)[C@H](O)c1ccc([N+](=O)[O-])cc1)C(Cl)Cl [chloramphenicol]	–	–	–	–	–	–	–	–	–	–	–	–	–	–	–	–	–	–	unaffected	–	–
